Source: patent US10441663B2, “Methods for treating cancer” (Bicycle Therapeutics Limited, priority 2016, dated 2019)
*1 amine or outer side, *2 acyl side, *3 side chain or, on linkers, in order; H or OH if unused. Where a SMILES comes first, the peptide text is derived from it. Bridges are numbered along the chain shown (N, C = ends). [ ]: non-standard residue; d: D form. The star is where a group is joined. X1 = COc1cc2cc(c1Cl)N(C)C(=O)C[C@H](OC(=O)[C@H](C)N(C)C(=O)CCSSC(C)CCC(=O)*)[C@]1(C)O[C@H]1[C@H](C)[C@@H]1C[C@@](O)(NC(=O)O1)[C@H](OC)/C=C/C=C(\C)C2; 1Nal = N[C@@H](Cc1cccc2ccccc12)C(=O)O; TBMB = c1c(C[*:1])cc(C[*:3])cc1C[*:2]; Tle = CC(C)(C)[C@H](N)C(=O)O; βAla = NCCC(=O)O; Sar = CNCC(=O)O

How the values were obtained:
[1] = tested on: LU-01-0046 non-small-cell lung carcinoma (NSCLC) PDX model; test: Efficacy in LU-01-0046 NSCLC PDX model (high MT1-expressing, docetaxel resistant); assay type: in vivo, Balb/C nude mice
Excerpt: The objective of the project is to evaluate the in vivo therapeutic efficacy of test articles in the LU-01-0046 non-small-cell lung carcinoma (NSCLC) PDX model. LU-01-0046 is a high MT1-expressing NSCLC that is docetaxel resistant.
(§1) Each mouse was inoculated subcutaneously at the right flank with certain kind of tumor fragment (30 mm3) for tumor development. The treatments started when the average tumor volume reaches approximately 150-200 mm^3. The test article administration and the animal numbers in each group are shown in Table 40 which details the experimental design.
(§2) Treatment was given until the control tumors reached an average of 1000 mm^3.
(§3) Before commencement of treatment all animals will be weighed and the tumor volumes will be measured. Since the tumor volume can affect the effectiveness of any given treatment, mice will be assigned into groups using randomized block design based upon their tumor volumes.
(§4) The protocol and any amendment(s) or procedures involving the care and use of animals in this study will be reviewed and approved prior to conduct. […] At the time of routine monitoring, the animals will be checked for any effects of tumor growth and treatments on normal behavior such as mobility, food and water consumption, body weight gain/loss (body weights will be measured twice weekly), eye/hair matting and any other abnormal effect. Death and observed clinical signs will be recorded on the basis of the numbers of animals within each subset.
(§5) The major endpoint is to see if the tumor growth can be delayed or mice can be cured. Tumor sizes will be measured twice weekly in two dimensions using a caliper and the volume will be expressed in mm^3 using the formula: V=0.5 a×b^2 where a and b are the long and short diameters of the tumor, respectively. […] T-C is calculated with T as the median time (in days) required for the treatment group tumors to reach a predetermined size (e.g., 1.000 mm^3), and C is the median time (in days) for the control group tumors to reach the same size. […]
(§6) TGI is calculated for each group using the formula. […]

[2] = tested on: LU-01-0251 non-small-cell lung carcinoma (NSCLC) PDX model; test: Efficacy in LU-01-0251 NSCLC PDX model (high MT1-expressing, docetaxel sensitive); assay type: in vivo, Balb/C nude mice
Excerpt: The objective of the project is to evaluate the in vivo therapeutic efficacy of test articles in the LU-01-0251 non-small-cell lung carcinoma (NSCLC) PDX model. LU-01-0251 is a high MT1-expressing NSCLC that is docetaxel sensitive.
as §1, §2, §3, §4, §5, §6

[3] = Preliminary metabolism studies; assay type: in vivo
Excerpt: Efficacy in this model was reduced in the conjugates containing the least cleavable linkers.

With `COc1cc2cc(c1Cl)N(C)C(=O)C[C@H](OC(=O)[C@H](C)N(C)C(=O)CCSSC(C)CCC(=O)NCCC(=O)N(C)CC(=O)N(C)CC(=O)N(C)CC(=O)N(C)CC(=O)N(C)CC(=O)N(C)CC(=O)N(C)CC(=O)N(C)CC(=O)N(C)CC(=O)N(C)CC(=O)N[C@@H](C)C(=O)N[C@H]1CSCc3cc4cc(c3)CSC[C@H](NC(=O)[C@@H](C)NC(=O)[C@H](Cc3cccc5ccccc35)NC(=O)[C@H](CCC(=O)O)NC(=O)[C@H](CC(N)=O)NC(=O)[C@@H](C)NC1=O)C(=O)N[C@@H](CCC(=O)O)C(=O)N[C@@H](CC(=O)O)C(=O)N[C@@H](Cc1ccccc1)C(=O)N[C@@H](Cc1ccc(O)cc1)C(=O)N[C@@H](CC(=O)O)C(=O)N[C@@H](C(C)(C)C)C(=O)N[C@H](C(N)=O)CSC4)[C@]1(C)O[C@H]1[C@H](C)[C@@H]1C[C@@](O)(NC(=O)O1)[C@H](OC)/C=C/C=C(\C)C2` (stereo partly shown) [BT1718] ({X1-βAla}-[Sar][Sar][Sar][Sar][Sar][Sar][Sar][Sar][Sar][Sar]AC[dA]NE[1Nal][dA]CEDFYD[Tle]C-NH2; linker 12-18-25 via TBMB (inferred)) the tumor response ([1]; 3 mg/kg biw) was “tumor stasis”, the “relapse after cessation of dosing” value ([1]; 10 mg/kg biw) was “lack of relapse” and the tumor response ([1]; 10 mg/kg biw) was “tumor eradication”. The tumor response ([2]; 3 mg/kg biw) was “tumor stasis”, the “relapse after cessation of dosing” value ([2]; 10 mg/kg biw) was “lack of relapse” and the tumor response ([2]; 10 mg/kg biw) was “tumor eradication”. The route of excretion [3] was “excreted mainly through the kidney in urine”.
